Literature values, collected in US4571403A, “Antianginal medicated compound” (Institut Organicheskoi Khimii Imeni N.D. Zelinskogo …, priority 1984, dated 1986).
Structures can show the parent of a compound that is named as a salt.

System: myocardium / blood circulation
Conditions: prior art; cited from earlier work

SMILES	adrenergic effect	blood flow / blood supply of ischemized zones of myocardium	contractability of the heart (inotropic effect)	duration of action	side effects	therapeutic range	incompatibility with other pharmaceutical preparations	contraindications	systemic arterial pressure
CCCCc1oc2ccccc2c1C(=O)c1cc(I)c(OCCN(CC)CC)c(I)c1 [Cardaron, [2-butyl-3-benzofuranyl]-[4-(2-diethylaminoethoxy)-3,5-diodophenyl]ketone hydrochloride]	antiadrenergic preparations with a mixed effect	no selective effect on blood supply of the ischemized zone of myocardium	negative inotropic effect on myocardium	short duration of its action	affection of eye cornea	narrow therapeutic range			
O=[N+]([O-])OCC(CO[N+](=O)[O-])O[N+](=O)[O-] [Trinitroglycerol, trinitroglycerol]					bad tolerance of the preparation by certain categories of patients accompanied by strong headaches		incompatibility with some other pharmaceutical preparations		
O=C(CCN1CCN2CCCC2C1)N1c2ccccc2Sc2ccc(Cl)cc21 (centres unmarked) [nonachlazine]	β-adrenostimulating component of the effect on myocardium							cannot be administered in the case of kidney and liver diseases	lasting hypertension of the arterial pressure
